Measured values reported in patent publication US7223583B2, “Antithrombotic thrombin variants” (Emory University, priority 2001, dated 2007).
Residues, ends and D or L forms follow the SMILES beside them. *: point of attachment. pNA = O=[N+]([O-])c1ccc(N*)cc1

How the values were obtained:
Assay type in all cases: biochemical
[1] = target: T1, human thrombin, variant W215A, SEQ ID NO: 1 (Homo sapiens, UniProt P00734, W590A); test: Hydrolysis of chromogenic substrates (release of p-NA at 405 nm), Example 3; conditions: 5 mM Tris, 0.1% PEG, 200 mM NaCl, pH 8.0, 25° C.
T1 construct: The B chain commences with I1 and extends to E259; made in house; host or cells: baby hamster kidney cells
Experimental: Site-directed mutagenesis of human α-thrombin was carried out in a HPC4-pNUT expression vector as described in Arosio et al. Biochemistry 39: 8095-8101 (2000) and incorporated herein by reference in its entirety, using overlap extension PCR with two mutant oligonucleotides: upstream: 5-GGGCATCGTCTCAXXXGGTGAAGGCTG TG-3(SEQ ID NO: 7); downstream: 5-CACAGCCTTCACCXXXTGAGACGATGCCC-3 (SEQ ID NO: 8) and two flanking oligonucleotide primers, BgIII (upstream): 5-[…]-3 (SEQ ID NO: 9 and; EcoRI (downstream): 5-[…]-3 (SEQ ID NO: 10). For the generation of the double mutant variant W215A/E217A (WE) thrombin, the forward primer 5′-[…]-3′ (SEQ ID NO: 11) and the reverse primer 5′-[…]-3′ (SEQ ID NO: 12) were used. Expression of the variant thrombins was carried out in baby hamster kidney cells as described in Guinto et al. Proc. Natl. Acad. Sci. U.S.A. 96: 1852-1857 (1999) incorporated herein by reference in its entirety. The enzyme was activated with the prothrombinase complex for about 30 mins. at 37° C. and then purified to homogeneity by monoS FPLC using a linear gradient of 0.05 to 0.5 M NaCl in 5 mM MES (pH 6) at room temperature. Mutants were further checked for incomplete refolding or autolytic digestion by N-terminal amino acid sequencing. Electrospray mass spectrometry yielded molecular weights consistent with the mutations introduced and indicated identical glycosylation in wild-type and mutant constructs.
All assays were carried out under experimental conditions of 5 mM Tris, 0.1% PEG, 145 mM NaCl, pH 7.4 at 37° C., unless otherwise specified. The chromogenic substrates FPR and LDPR were synthesized by solid phase, purified by HPLC and analyzed by mass spectrometry. Progress curves of the release of p-NA following the hydrolysis of chromogenic substrate were measured at 405 nm as a function of substrate concentration and analyzed to extract the values of kcat/Km and kcat, after proper correction for product inhibition. […] Biotechnol. 15: 146-149 (1997) and incorporated herein by reference in its entirety.

[2] = target: T2, human thrombin, wild-type (WT) (Homo sapiens, UniProt P00734); test: as above; conditions: 5 mM Tris, 0.1% PEG, 200 mM NaCl, pH 8.0, 25° C.
T2 construct: the B chain of thrombin commences with I1 and extends to E259; made in house
Experimental: Citrated plasma was diluted 1:1 with isotonic saline, and the thrombin analogs were diluted with 0.1 M NaCl, 0.01 M CaCl2, 0.02 M Tris, pH 7.3 prior to testing. 100 μl of thrombin analog was then added to 200 μl of baboon plasma and the clotting time was determined using a fibrometer.
The chromogenic substrates FPR and LDPR were synthesized by solid phase, purified by HPLC and analyzed by mass spectrometry. Progress curves of the release of p-NA following the hydrolysis of chromogenic substrate were measured at 405 nm as a function of substrate concentration and analyzed to extract the values of kcat/Km and kcat, after proper correction for product inhibition. […] Biotechnol.

[3] = target: T2, human thrombin, wild-type (WT); test: Hydrolysis of chromogenic substrate (progress curves of the release of p-nitroaniline at 405 nm), Example 4; conditions: 5 mM Tris, 0.1% PEG, 145 mM NaCl, pH 7.4, 37° C.
From the text: WT, W215A and WE variant thrombins were expressed, purified, and characterized in detail as described by Cantwell & Di Cera. J. Biol. Chem. 275: 39827-39830 (2000), incorporated herein by reference in its entirety. WE was stored in aliquots frozen until used in the thrombosis or coagulation experiments. To confirm that injection of variant thrombin WE would be at least as safe as injection of WT in baboons, the procoagulant activities of the two thrombins were compared in baboon plasma prepared by pooling citrated plasma samples from five animals. Citrated plasma was diluted 1:1 with isotonic saline, and the thrombin analogs were diluted with 0.1 M NaCl, 0.01 M CaCl2, 0.02 M Tris, pH 7.3 prior to testing. 100 μl of thrombin analog was then added to 200 μl of baboon plasma and the clotting time was determined using a fibrometer. […]
(§1) All assays were carried out under experimental conditions of 5 mM Tris, 0.1% PEG, 145 mM NaCl, pH 7.4 at 37° C. […] The values of kcat/Km and kcat were obtained from the analysis of progress curves of the release of p-nitroaniline (measured at 405 nm) as a function of substrate concentration taking into account product inhibition, when present. […] The inhibition of thrombin by antithrombin III in the presence of heparin, and the activation of protein C in the presence or absence of rabbit thrombomodulin were carried out and analyzed as described in Dang et al. Nat. […]

[4] = target: T3, human thrombin, variant E217A (Homo sapiens, UniProt P00734, E592A); test: as above; conditions: E217A; 5 mM Tris, 0.1% PEG, 145 mM NaCl, pH 7.4, 37° C.
T3 construct: the B chain of thrombin commences with I1 and extends to E259
Experimental: (§2) All assays were carried out under experimental conditions of 5 mM Tris, 0.1% PEG, 145 mM NaCl, pH 7.4 at 37° C. The chromogenic substrates H-D-Phe-Pro-Arg-p-nitroanilide specific for thrombin and H-D-Asp-Arg-Arg-p-nitroanilide specific for activated protein C were purchased from Midwest Bio-Tech (Carmel, Ind.). The values of kcat/Km and kcat were obtained from the analysis of progress curves of the release of p-nitroaniline (measured at 405 nm) as a function of substrate concentration taking into account product inhibition, when present. The interaction of thrombin with fibrinogen and fibrin was studied in terms of the release of fibrinopeptides A and B as described by Vindigni & Di Cera. Biochemistry 35: 4417-4426 (1996) incorporated herein by reference in its entirety. The interaction of thrombin with PAR-1 was studied from the kinetics of cleavage of a soluble fragment corresponding to the extracellular portion of the receptor, as detailed in Arosio et al. Biochemistry 39: 8095-8101 (2000) incorporated herein by reference in its entirety. The inhibition of thrombin by antithrombin III in the presence of heparin, and the activation of protein C in the presence or absence of rabbit thrombomodulin were carried out and analyzed as described in Dang et al. Nat. Biotechnol. 15: 146-149 (1997).

[5] = system: human thrombin, variant E217A; test: as above; conditions: E217A thrombin mutant (Gibbs et al.)
Experimental: as §2

[6] = system: human thrombin, variant W215A/E217A (WE), SEQ ID NO: 3; test: as above; conditions: W215A/E217A (WE) thrombin double mutant
Experimental: (§3) Site-directed mutagenesis of human α-thrombin was carried out in a HPC4-pNUT expression vector as described in Arosio et al. Biochemistry 39: 8095-8101 (2000) and incorporated herein by reference in its entirety, using overlap extension PCR with two mutant oligonucleotides: upstream: 5-GGGCATCGTCTCAXXXGGTGAAGGCTG TG-3(SEQ ID NO: 7); downstream: 5-CACAGCCTTCACCXXXTGAGACGATGCCC-3 (SEQ ID NO: 8) and two flanking oligonucleotide primers, BgIII (upstream): 5-[…]-3 (SEQ ID NO: 9 and; EcoRI (downstream): 5-[…]-3 (SEQ ID NO: 10). For the generation of the double mutant variant W215A/E217A (WE) thrombin, the forward primer 5′-[…]-3′ (SEQ ID NO: 11) and the reverse primer 5′-[…]-3′ (SEQ ID NO: 12) were used. […]
as §1

[7] = target: T4, human thrombin, variant W215A/E217A (WE), SEQ ID NO: 3 (Homo sapiens, UniProt P00734, E592A/W590A); test: as above; conditions: W215A/E217A (WE); 5 mM Tris, 0.1% PEG, 145 mM NaCl, pH 7.4, 37° C.
T4 construct: The B chain commences with I1 and extends to E259; made in house; host or cells: baby hamster kidney cells
Experimental: as §3, §1

[8] = kcat could not be estimated due to the very high Km

Row | Structure (SMILES) | kcat/Km (LDPR) [1, 8] [M⁻¹ s⁻¹] | kcat/Km (LDPR) [2, 8] [M⁻¹ s⁻¹] | kcat (FPR) [1] [s⁻¹] | kcat/Km (FPR) [1] [M⁻¹ s⁻¹] | kcat/Km (H-D-Phe-Pro-Arg-p-nitroanilide) [3] [M⁻¹ s⁻¹] | kcat/Km (H-D-Phe-Pro-Arg-p-nitroanilide) [4] [M⁻¹ s⁻¹] | drop of kcat/Km for the hydrolysis of H-D-Phe-Pro-Arg-p-nitroanilide [5] | kcat (FPR) [2] [s⁻¹] | kcat/Km (FPR) [2] [M⁻¹ s⁻¹] | cleavage of H-D-Phe-Pro-Arg-p-nitroanilide compromised [6] | kcat/Km (H-D-Phe-Pro-Arg-p-nitroanilide) [7] [M⁻¹ s⁻¹]
1 | CC(C)C[C@H](N)C(=O)N[C@@H](CC(=O)O)C(=O)N1CCC[C@H]1C(=O)N[C@@H](CCCN=C(N)N)C(=O)Nc1ccc([N+](=O)[O-])cc1 [LDPR, H-L-Leu-Asp-Pro-Arg-p-nitroanilide] (H-LDPR-pNA) | 25000 ± 1000 | 4.7e+06 ± 900000 |  |  |  |  |  |  |  |  | 
2 | NC(N)=NCCC[C@H](NC(=O)[C@@H]1CCCN1C(=O)[C@H](N)Cc1ccccc1)C(=O)Nc1ccc([N+](=O)[O-])cc1 [FPR, H-D-Phe-Pro-Arg-p-nitroanilide] |  |  | 43 ± 2 | 910000 ± 10000 | 9.7e+07 ± 5e+06 | 3.8e+06 ± 300000 | over 25 fold | 56 ± 3 | 8.8e+07 ± 4e+06 | over 30,000 fold | 2800 ± 100
